Test results published in the NIST ThermoML archive (doi:10.1016/j.fluid.2014.05.031).
Where “and” joins values, the source holds several entries; their conditions need not be identical. Equal values may be shown once.

Test: excess molar enthalpy (molar enthalpy of mixing); xn = mol fraction of the nth substance listed
Conditions: Liquid, Flow calorimetry

CCOC(C)=O [ethyl acetate] + CCO
Conditions	excess molar enthalpy [kcal/mol]
363.15 K, 1548 kPa, x1 = 0.0151	0.0233
363.15 K, 1548 kPa, x1 = 0.0305	0.0473
363.15 K, 1548 kPa, x1 = 0.0624	0.0937
363.15 K, 1548 kPa, x1 = 0.0956	0.138
363.15 K, 1548 kPa, x1 = 0.1302	0.1809
363.15 K, 1548 kPa, x1 = 0.1664	0.2213
363.15 K, 1548 kPa, x1 = 0.2042	0.2588
363.15 K, 1548 kPa, x1 = 0.2438	0.2935
363.15 K, 1548 kPa, x1 = 0.2853	0.3284
363.15 K, 1548 kPa, x1 = 0.3288	0.3559
363.15 K, 1548 kPa, x1 = 0.3745	0.3781
363.15 K, 1548 kPa, x1 = 0.4226	0.3984
363.15 K, 1548 kPa, x1 = 0.4732	0.4104
363.15 K, 1548 kPa, x1 = 0.5265	0.4087
363.15 K, 1548 kPa, x1 = 0.5828	0.4039
363.15 K, 1548 kPa, x1 = 0.6424	0.3867
363.15 K, 1548 kPa, x1 = 0.7054	0.3552
363.15 K, 1548 kPa, x1 = 0.7724	0.305
363.15 K, 1548 kPa, x1 = 0.8435	0.2323
363.15 K, 1548 kPa, x1 = 0.9192	0.133
363.15 K, 1548 kPa, x1 = 0.9589	0.0698
413.15 K, 1307 kPa, x1 = 0.0151	0.0258
413.15 K, 1307 kPa, x1 = 0.0306	0.0531
413.15 K, 1307 kPa, x1 = 0.0624	0.105
413.15 K, 1307 kPa, x1 = 0.0956	0.154
413.15 K, 1307 kPa, x1 = 0.1302	0.201
413.15 K, 1307 kPa, x1 = 0.1664	0.2457
413.15 K, 1307 kPa, x1 = 0.2042	0.2863
413.15 K, 1307 kPa, x1 = 0.2438	0.325
413.15 K, 1307 kPa, x1 = 0.2853	0.359
413.15 K, 1307 kPa, x1 = 0.3288	0.3879
413.15 K, 1307 kPa, x1 = 0.3745	0.4123
413.15 K, 1307 kPa, x1 = 0.4226	0.4238
413.15 K, 1307 kPa, x1 = 0.4732	0.4338
413.15 K, 1307 kPa, x1 = 0.5265	0.4331
413.15 K, 1307 kPa, x1 = 0.5829	0.4218
413.15 K, 1307 kPa, x1 = 0.6424	0.3975
413.15 K, 1307 kPa, x1 = 0.7055	0.359
413.15 K, 1307 kPa, x1 = 0.7724	0.3014
413.15 K, 1307 kPa, x1 = 0.8435	0.2244
413.15 K, 1307 kPa, x1 = 0.9192	0.125
413.15 K, 1307 kPa, x1 = 0.9589	0.066

CCOC(C)=O [ethyl acetate] + O
353.15 K, 1272 kPa
Conditions	excess molar enthalpy
x1 = 0.0096	0.005 kcal/mol
x1 = 0.0201	0.0107 kcal/mol
x1 = 0.0441	0.0219 kcal/mol
x1 = 0.058	0.0284 kcal/mol
x1 = 0.0733	0.0356 kcal/mol
x1 = 0.0905	0.0435 kcal/mol and 0.0437 kcal/mol
x1 = 0.1096	0.0526 kcal/mol
x1 = 0.1313	0.0631 kcal/mol
x1 = 0.1559	0.0743 kcal/mol
x1 = 0.1842	0.087 kcal/mol
x1 = 0.2169	0.103 kcal/mol
x1 = 0.2554	0.121 kcal/mol
x1 = 0.3012	0.142 kcal/mol
x1 = 0.3565	0.168 kcal/mol
x1 = 0.4249	0.2 kcal/mol
x1 = 0.5114	0.24 kcal/mol
x1 = 0.5639	0.264 kcal/mol
x1 = 0.6244	0.293 kcal/mol
x1 = 0.6949	0.324 kcal/mol
x1 = 0.8258	0.287 kcal/mol
x1 = 0.8781	0.225 kcal/mol
x1 = 0.9359	0.141 kcal/mol
